The record followed here is patent US12226424B2, “Target protein degradation compounds, their anti-tumor use, their intermediates and use of intermediates” (ShanghaiTech University, priority 2018, dated 2025).

Test [1] deals with T1, BCR-ABL (Homo sapiens, UniProt P00519). As to the kind of experiment: Western-blot half-degradation concentration (DC50) / degradation of BCR-ABL in K562 cells. The settings on record: 24 h.
For test [2], the target named is T1, BCR-ABL. As to the kind of experiment: Western-blot detection of BCR-ABL protein degradation (FIGS. 1-15). The test is classed as cell-based.
The target in test [3] is T2, c-ABL (Homo sapiens, UniProt P00519). The test can be described thus: Western-blot detection of c-ABL protein degradation (FIGS. 1-15). The format is cell-based.
T2 sequence (P00519 whole entry): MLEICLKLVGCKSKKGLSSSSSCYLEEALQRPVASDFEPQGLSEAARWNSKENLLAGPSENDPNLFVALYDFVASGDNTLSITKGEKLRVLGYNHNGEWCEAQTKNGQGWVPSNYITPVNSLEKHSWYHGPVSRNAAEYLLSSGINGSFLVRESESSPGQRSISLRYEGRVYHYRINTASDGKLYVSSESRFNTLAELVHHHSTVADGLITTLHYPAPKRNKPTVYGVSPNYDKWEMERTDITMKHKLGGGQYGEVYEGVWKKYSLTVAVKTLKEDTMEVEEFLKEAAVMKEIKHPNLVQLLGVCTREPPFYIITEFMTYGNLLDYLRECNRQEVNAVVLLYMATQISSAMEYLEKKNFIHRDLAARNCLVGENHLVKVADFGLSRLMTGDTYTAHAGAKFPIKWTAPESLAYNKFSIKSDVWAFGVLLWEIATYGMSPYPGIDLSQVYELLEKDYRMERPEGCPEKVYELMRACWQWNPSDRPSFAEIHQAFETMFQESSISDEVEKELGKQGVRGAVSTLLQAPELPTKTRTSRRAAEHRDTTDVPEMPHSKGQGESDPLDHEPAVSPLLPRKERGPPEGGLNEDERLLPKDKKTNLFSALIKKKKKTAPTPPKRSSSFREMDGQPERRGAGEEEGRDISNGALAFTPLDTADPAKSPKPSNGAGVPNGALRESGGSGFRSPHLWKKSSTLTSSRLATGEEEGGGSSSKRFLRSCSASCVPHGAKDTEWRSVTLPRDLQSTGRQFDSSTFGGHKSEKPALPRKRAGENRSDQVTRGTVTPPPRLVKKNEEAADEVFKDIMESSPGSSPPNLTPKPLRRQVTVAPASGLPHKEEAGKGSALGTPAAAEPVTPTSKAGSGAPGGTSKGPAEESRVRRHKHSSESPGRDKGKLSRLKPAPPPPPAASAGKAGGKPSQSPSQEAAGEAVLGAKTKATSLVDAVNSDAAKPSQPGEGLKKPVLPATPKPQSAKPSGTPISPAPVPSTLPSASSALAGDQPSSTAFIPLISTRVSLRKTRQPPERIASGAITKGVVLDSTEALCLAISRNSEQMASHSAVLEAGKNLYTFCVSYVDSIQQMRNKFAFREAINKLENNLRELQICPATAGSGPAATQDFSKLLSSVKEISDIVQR
Test [4] addresses T2, c-ABL. As to the kind of experiment: Western-blot degradation of c-ABL in K562 cells. As to conditions: 24 h.

T1 sequence (P00519 with tags, fused parts or gaps): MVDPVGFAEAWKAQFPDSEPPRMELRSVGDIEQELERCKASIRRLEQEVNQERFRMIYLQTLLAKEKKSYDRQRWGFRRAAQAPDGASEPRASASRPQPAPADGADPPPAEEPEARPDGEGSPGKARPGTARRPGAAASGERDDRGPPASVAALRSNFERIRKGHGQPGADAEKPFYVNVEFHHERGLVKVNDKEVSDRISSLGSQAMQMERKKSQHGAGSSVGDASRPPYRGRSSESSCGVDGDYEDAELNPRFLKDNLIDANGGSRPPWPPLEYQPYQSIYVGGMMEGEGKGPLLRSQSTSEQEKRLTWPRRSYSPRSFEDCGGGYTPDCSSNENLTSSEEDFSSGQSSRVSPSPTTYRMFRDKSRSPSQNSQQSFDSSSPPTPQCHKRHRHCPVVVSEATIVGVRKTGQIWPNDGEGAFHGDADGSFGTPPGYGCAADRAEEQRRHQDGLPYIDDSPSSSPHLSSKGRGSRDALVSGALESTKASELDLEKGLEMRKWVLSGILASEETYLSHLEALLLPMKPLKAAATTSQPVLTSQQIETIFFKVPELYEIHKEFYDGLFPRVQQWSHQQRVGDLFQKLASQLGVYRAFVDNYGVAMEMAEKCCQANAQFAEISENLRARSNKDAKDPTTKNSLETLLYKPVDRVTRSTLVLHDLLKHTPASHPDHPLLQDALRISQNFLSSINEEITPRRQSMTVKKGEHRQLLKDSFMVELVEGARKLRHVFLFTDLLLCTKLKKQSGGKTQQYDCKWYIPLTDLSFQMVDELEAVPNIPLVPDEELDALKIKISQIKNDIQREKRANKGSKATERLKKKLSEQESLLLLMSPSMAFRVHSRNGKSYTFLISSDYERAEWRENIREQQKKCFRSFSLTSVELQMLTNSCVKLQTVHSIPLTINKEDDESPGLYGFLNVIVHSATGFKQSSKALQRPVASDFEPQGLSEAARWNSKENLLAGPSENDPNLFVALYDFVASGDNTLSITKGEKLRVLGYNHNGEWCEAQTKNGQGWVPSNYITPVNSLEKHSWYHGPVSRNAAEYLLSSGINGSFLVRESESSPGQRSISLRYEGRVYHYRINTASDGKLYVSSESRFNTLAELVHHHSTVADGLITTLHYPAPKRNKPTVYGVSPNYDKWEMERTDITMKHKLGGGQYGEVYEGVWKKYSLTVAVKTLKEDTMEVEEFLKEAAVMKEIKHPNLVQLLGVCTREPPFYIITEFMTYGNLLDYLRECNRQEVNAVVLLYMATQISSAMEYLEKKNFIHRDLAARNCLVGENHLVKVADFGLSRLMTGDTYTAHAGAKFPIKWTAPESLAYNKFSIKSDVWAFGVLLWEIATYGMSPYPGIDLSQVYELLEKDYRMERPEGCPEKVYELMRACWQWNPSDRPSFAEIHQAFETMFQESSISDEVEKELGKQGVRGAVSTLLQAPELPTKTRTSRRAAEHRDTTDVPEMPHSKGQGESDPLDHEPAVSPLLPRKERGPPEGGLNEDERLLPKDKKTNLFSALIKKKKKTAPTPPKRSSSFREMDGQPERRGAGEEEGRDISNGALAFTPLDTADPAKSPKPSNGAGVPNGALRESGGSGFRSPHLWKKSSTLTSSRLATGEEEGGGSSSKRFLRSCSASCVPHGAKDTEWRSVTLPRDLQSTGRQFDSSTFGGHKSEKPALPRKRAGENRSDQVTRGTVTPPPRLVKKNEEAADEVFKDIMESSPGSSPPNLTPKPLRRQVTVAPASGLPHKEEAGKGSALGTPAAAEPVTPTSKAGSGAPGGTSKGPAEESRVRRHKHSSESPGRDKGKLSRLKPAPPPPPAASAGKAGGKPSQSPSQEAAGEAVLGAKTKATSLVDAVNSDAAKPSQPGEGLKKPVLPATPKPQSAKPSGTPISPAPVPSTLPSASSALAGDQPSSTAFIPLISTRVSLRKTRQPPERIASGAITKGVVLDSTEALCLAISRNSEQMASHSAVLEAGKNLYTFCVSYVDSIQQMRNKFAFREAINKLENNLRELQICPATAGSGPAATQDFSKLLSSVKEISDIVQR

For `Cc1nc(Nc2ncc(C(=O)Nc3c(C)cccc3Cl)s2)cc(N2CCN(C(=O)CNc3cccc4c3C(=O)N(C3CCC(=O)NC3=O)C4=O)CC2)n1` (stereo not shown) [SIAIS151072, N-(2-chloro-6-methylphenyl)-2-((6-(4-((2-(2,6-dioxopiperidin-3-yl)-1,3-dioxoisoindolin-4-yl)aminoacetyl)piperazin-1-yl)-2-methylpyrimidin-4-yl)amino)thiazole-5-carboxamide], at BCR-ABL [1], the “degradation of BCR-ABL protein (Western-blot)” value was “significantly weaker ability to degrade BCR-ABL and c-ABL proteins”. At BCR-ABL [2], the “ability to degrade BCR-ABL protein (Western-blot, in words)” value is on record as “significantly weaker ability to degrade”. Moreover, on c-ABL [3], the “ability to degrade c-ABL protein (Western-blot, in words)” value is given as “significantly weaker ability to degrade”. Moreover, on c-ABL [4], the “degradation of c-ABL protein (Western-blot)” value is “significantly weaker ability to degrade BCR-ABL and c-ABL proteins”.
